Assay results as given in ChEMBL document CHEMBL3885861, “Open TG-GATES”.

Species on record: Rattus norvegicus
Experiment: Open TG-GATES - Regimen: Single
Type: toxicity, organism-based, Sprague-Dawley
Set-up: regimen Single, gender Male, age 6 weeks
Details: in vivo, iv, route intravenous injection; for APTT / Bas / Eos / Fbg / Hb / Ht / Lym / MCH / MCHC / MCV / Mono / Neu / PT / Plat / RBC / Ret / WBC: tissue Blood; for KIDNEY_L / KIDNEY_R / KIDNEY_TOTAL: tissue Kidney; for LIVER: tissue Liver; for A/G / ALP / ALT / AST / BUN / CRE / Ca / Cl / DBIL / GLC / IP / K / LDH / Na / PL / RALB / TBIL / TC / TG / TP / gamma-GTP: tissue Plasma
[1] = 0 mg/kg, 3 h, dose level Control
[2] = 0 mg/kg, 6 h, dose level Control
[3] = 0 mg/kg, 9 h, dose level Control
[4] = 0 mg/kg, 24 h, dose level Control

## C[C@@H]1[C@H](O)[C@@H](C)/C=C/C=C/C=C/C=C/C=C/C=C/C=C/[C@H](O[C@@H]2O[C@H](C)[C@@H](O)[C@H](N)[C@@H]2O)C[C@@H]2O[C@](O)(C[C@@H](O)C[C@@H](O)[C@H](O)CC[C@@H](O)C[C@@H](O)CC(=O)O[C@H]1C)C[C@H](O)[C@H]2C(=O)O [AMPHOTERICIN B]
[1]
  TERMINAL_BW: 219.1 g
  APTT: 17.6 s
  Bas: 0%
  Eos: 0.6%
  Fbg: 275.4 mg/dL
  Hb: 13.2 g/dL
  Ht: 39.1%
  Lym: 78.4%
  MCH: 20.8 pg
  MCHC: 33.9%
  MCV: 61.3 fL
  Mono: 2.6%
  Neu: 17.2%
  PT: 13.1 s
  Plat: 131.5 x10_4/uL
  RBC: 638.4 x10_4/ul
  Ret: 7%
  WBC: 102.7 x10_2/uL
  KIDNEY_L: 0.9 g
  KIDNEY_R: 1 g
  KIDNEY_TOTAL: 1.9 g
  LIVER: 9.9 g
  A/G: 0.8
  ALP: 1671 IU/L
  ALT: 40.4 IU/L
  AST: 86 IU/L
  BUN: 11.4 mg/dL
  CRE: 0.2 mg/dL
  Ca: 11 mg/dL
  Cl: 106.2 meq/L
  DBIL: 0.02 mg/dL
  GLC: 167.2 mg/dL
  IP: 8.3 mg/dL
  K: 3.9 meq/L
  LDH: 67 IU/L
  Na: 142 meq/L
  PL: 130.4 mg/dL
  RALB: 2.5 g/dL
  TBIL: 0.066 mg/dL
  TC: 75.4 mg/dL
  TG: 58.8 mg/dL
  TP: 5.5 g/dL
  gamma-GTP: 1.6 IU/L
[2]
  TERMINAL_BW: 212 g
  APTT: 17 s
  Bas: 0%
  Eos: 0.8%
  Fbg: 271.2 mg/dL
  Hb: 13.4 g/dL
  Ht: 39.9%
  Lym: 77.2%
  MCH: 21.1 pg
  MCHC: 33.6%
  MCV: 62.6 fL
  Mono: 1.8%
  Neu: 19.6%
  PT: 13.1 s
  Plat: 129.4 x10_4/uL
  RBC: 637.4 x10_4/ul
  Ret: 8.6%
  WBC: 90.4 x10_2/uL
  KIDNEY_L: 0.9 g
  KIDNEY_R: 0.9 g
  KIDNEY_TOTAL: 1.9 g
  LIVER: 8.8 g
  A/G: 0.8
  ALP: 1553.8 IU/L
  ALT: 35.6 IU/L
  AST: 68 IU/L
  BUN: 8.4 mg/dL
  CRE: 0.1 mg/dL
  Ca: 10.6 mg/dL
  Cl: 105 meq/L
  DBIL: 0.014 mg/dL
  GLC: 182.2 mg/dL
  IP: 9.9 mg/dL
  K: 3.9 meq/L
  LDH: 50.8 IU/L
  Na: 142 meq/L
  PL: 125.8 mg/dL
  RALB: 2.5 g/dL
  TBIL: 0.064 mg/dL
  TC: 76.2 mg/dL
  TG: 46.8 mg/dL
  TP: 5.5 g/dL
  gamma-GTP: 1.6 IU/L
[3]
  TERMINAL_BW: 208.7 g
  APTT: 17.4 s
  Bas: 0%
  Eos: 1%
  Fbg: 281.4 mg/dL
  Hb: 13.4 g/dL
  Ht: 39.1%
  Lym: 71.8%
  MCH: 21.1 pg
  MCHC: 34.2%
  MCV: 61.6 fL
  Mono: 1.8%
  Neu: 24.4%
  PT: 13.2 s
  Plat: 136.6 x10_4/uL
  RBC: 635 x10_4/ul
  Ret: 8.1%
  WBC: 80.2 x10_2/uL
  KIDNEY_L: 0.9 g
  KIDNEY_R: 0.9 g
  KIDNEY_TOTAL: 1.8 g
  LIVER: 8.3 g
  A/G: 0.8
  ALP: 1611.8 IU/L
  ALT: 30.6 IU/L
  AST: 67.6 IU/L
  BUN: 8.6 mg/dL
  CRE: 0.1 mg/dL
  Ca: 10.6 mg/dL
  Cl: 106.4 meq/L
  DBIL: 0.018 mg/dL
  GLC: 170.2 mg/dL
  IP: 9.7 mg/dL
  K: 3.7 meq/L
  LDH: 54.8 IU/L
  Na: 142.2 meq/L
  PL: 120.8 mg/dL
  RALB: 2.5 g/dL
  TBIL: 0.068 mg/dL
  TC: 72.6 mg/dL
  TG: 43.8 mg/dL
  TP: 5.6 g/dL
  gamma-GTP: 1.8 IU/L
[4]
  TERMINAL_BW: 228.2 g
  APTT: 15.8 s
  Bas: 0.2%
  Eos: 1%
  Fbg: 302.6 mg/dL
  Hb: 13 g/dL
  Ht: 38.7%
  Lym: 78.8%
  MCH: 20.9 pg
  MCHC: 33.6%
  MCV: 62.4 fL
  Mono: 2.2%
  Neu: 17%
  PT: 12.3 s
  Plat: 145.5 x10_4/uL
  RBC: 621.8 x10_4/ul
  Ret: 7.1%
  WBC: 93.8 x10_2/uL
  KIDNEY_L: 1 g
  KIDNEY_R: 1 g
  KIDNEY_TOTAL: 1.9 g
  LIVER: 10.4 g
  A/G: 0.9
  ALP: 1818.6 IU/L
  ALT: 37.6 IU/L
  AST: 66.8 IU/L
  BUN: 15.2 mg/dL
  CRE: 0.2 mg/dL
  Ca: 11 mg/dL
  Cl: 105.6 meq/L
  DBIL: 0.02 mg/dL
  GLC: 169 mg/dL
  IP: 7.7 mg/dL
  K: 3.8 meq/L
  LDH: 53.2 IU/L
  Na: 143.4 meq/L
  PL: 133.4 mg/dL
  RALB: 2.6 g/dL
  TBIL: 0.054 mg/dL
  TC: 74.2 mg/dL
  TG: 96.8 mg/dL
  TP: 5.8 g/dL
  gamma-GTP: 1.6 IU/L
1 mg/kg, 3 h, dose level Low
  TERMINAL_BW: 214.2 g
  APTT: 16.8 s
  Bas: 0%
  Eos: 0.6%
  Fbg: 257 mg/dL
  Hb: 13.6 g/dL
  Ht: 39.9%
  Lym: 74.6%
  MCH: 21.2 pg
  MCHC: 34.1%
  MCV: 62 fL
  Mono: 3.2%
  Neu: 20.6%
  PT: 13 s
  Plat: 139.1 x10_4/uL
  RBC: 644.6 x10_4/ul
  Ret: 7.7%
  WBC: 97.1 x10_2/uL
  KIDNEY_L: 1 g
  KIDNEY_R: 1 g
  KIDNEY_TOTAL: 1.9 g
  LIVER: 9.8 g
  A/G: 0.9
  ALP: 1691 IU/L
  ALT: 40 IU/L
  AST: 85.4 IU/L
  BUN: 18.8 mg/dL
  CRE: 0.2 mg/dL
  Ca: 10.9 mg/dL
  Cl: 106.6 meq/L
  DBIL: 0.018 mg/dL
  GLC: 173.4 mg/dL
  IP: 8.6 mg/dL
  K: 3.9 meq/L
  LDH: 58.8 IU/L
  Na: 143.2 meq/L
  PL: 129.4 mg/dL
  RALB: 2.6 g/dL
  TBIL: 0.058 mg/dL
  TC: 74 mg/dL
  TG: 53.8 mg/dL
  TP: 5.6 g/dL
  gamma-GTP: 2 IU/L
1 mg/kg, 6 h, dose level Low
  TERMINAL_BW: 208.2 g
  APTT: 15.4 s
  Bas: 0%
  Eos: 0.8%
  Fbg: 286.6 mg/dL
  Hb: 13.3 g/dL
  Ht: 39.5%
  Lym: 68.6%
  MCH: 20.9 pg
  MCHC: 33.7%
  MCV: 62 fL
  Mono: 2.8%
  Neu: 27%
  PT: 12.8 s
  Plat: 135.3 x10_4/uL
  RBC: 636.4 x10_4/ul
  Ret: 7.9%
  WBC: 98.4 x10_2/uL
  KIDNEY_L: 1 g
  KIDNEY_R: 0.9 g
  KIDNEY_TOTAL: 1.9 g
  LIVER: 9 g
  A/G: 0.8
  ALP: 1534.4 IU/L
  ALT: 38.2 IU/L
  AST: 70.8 IU/L
  BUN: 16.4 mg/dL
  CRE: 0.1 mg/dL
  Ca: 10.7 mg/dL
  Cl: 106.6 meq/L
  DBIL: 0.016 mg/dL
  GLC: 180 mg/dL
  IP: 10.1 mg/dL
  K: 3.4 meq/L
  LDH: 57.2 IU/L
  Na: 144.6 meq/L
  PL: 135 mg/dL
  RALB: 2.6 g/dL
  TBIL: 0.062 mg/dL
  TC: 83.8 mg/dL
  TG: 41.4 mg/dL
  TP: 5.7 g/dL
  gamma-GTP: 1.4 IU/L
1 mg/kg, 9 h, dose level Low
  TERMINAL_BW: 208.6 g
  APTT: 16.5 s
  Bas: 0%
  Eos: 1%
  Fbg: 296.2 mg/dL
  Hb: 13.2 g/dL
  Ht: 38.5%
  Lym: 71.4%
  MCH: 20.9 pg
  MCHC: 34.2%
  MCV: 61 fL
  Mono: 1.8%
  Neu: 25.4%
  PT: 12.9 s
  Plat: 132.4 x10_4/uL
  RBC: 631.6 x10_4/ul
  Ret: 7.9%
  WBC: 97.1 x10_2/uL
  KIDNEY_L: 0.9 g
  KIDNEY_R: 0.9 g
  KIDNEY_TOTAL: 1.9 g
